# Assays:
# Type in all cases: cell-based
# beta-catenin = assay: Western immunoblot of total and active (unphosphorylated) beta-catenin in INS-1 cells
# Description: FIG. 5. Inhibition of TCF7L2 or beta-catenin suppresses SDF-1 induced TOPflash activity. A. Dominant-negative TCF7L2 inhibits both basal and SDF-1-induced TOPflash activity. B. SiRNAs to beta-catenin SiRNAs inhibit SDF-1-stimulated Wnt signaling in INS-1 cells. INS-1 Cells were transfected and preincubated with TOPflash and the combination of either siRNAs 1 and 2, or scrambled siRNA and then treated for 4 hrs with 1 nM SDF-1 or control vehicle. Data are normalized for transfection efficiency by co-transfected beta-galactosidase and represent means±S.D. of three experiments. C. SDF-1 stabilizes beta-catenin through GPCR coupled Galphai/o. INS-1 cell cultures were stimulated with SDF-1 for the indicated times. Immunoblot analyses with anti-beta-catenin or anti-unphosphorylated beta-catenin (active beta-catenin).
# Western Immunoblots Membrane immunoblots were prepared from extracts of INS-1 cells and were interrogated with antisera to beta-catenin: total protein (Santa Cruz), and active form with the mutated GSK-3 phosphorylation sites (UpState 8E7).
# The transcriptional activation of Wnt target genes requires the association of TCF7L2 with nuclear beta-catenin. Therefore, we investigated whether active TCF7L2 is necessary for SDF-1-induced Wnt signaling. […]
# alpha-TC-1 cells = assay: BrdU incorporation cell proliferation assay in alpha-TC-1 cells; details: serum starved alpha-TC-1 cells, SDF-1 10 nM, 20 hrs
# Description: FIG. 16. BrdU incorporation cell proliferation assay. Serum starved alpha-TC-1 cells were treated with either PBS (Control) or SDF-1 (10 nM) for 20 hrs, and their proliferation rate was examined by a BrdU incorporation assay. Data represent means±S.D. of three experiments. Statistical significance is depicted as * (p<0.05) when compared with control values (left bar).
# INS-1 cells = assay: ATP-lite cell viability assay, glucose toxicity; details: 25 mM glucose, SDF-1 added day 0, 2, 4, read day 6
# Description: FIG. 34. […] For bars 3-8, SDF-1 was added at the indicated concentrations to high glucose concentration well plates at day 0, 2, 4. Cell viability was measured at day 6. N=4.
# SDF-1 was added at various concentrations (0.1 nM, 0.25 nM, […], 1 nM, 2.5 nM, and 5 nM) to high glucose concentration well plates at day 0, 2, 4. Cell viability was measured at day 6, using the ATP-lite cell viability assay (PerkinElmer, Boston, Mass.).
substance,measurement,setting,value
"SDF-1: small, secreted 70 amino acid peptide chemokine, SEQ ID NO: 1, ligand of CXCR4",level of active beta-catenin (unphosphorylated on Ser-33 and Ser-37),beta-catenin; 30 min after SDF-1 treatment,increased
same,total beta-catenin,beta-catenin; after 24-48 hours of SDF-1 treatment,substantial increase
same,proliferation of alpha cells (BrdU incorporation),alpha-TC-1 cells,stimulates the proliferation
same,protection of cell viability against glucose toxicity,INS-1 cells,dose-dependently protects
